Our source for the Km values is publication PMC4954967, “Identification of a diazinon-metabolizing glutathione S-transferase in the silkworm, Bombyx mori” (Scientific Reports, 2016).

Assay in all cases: spectrophotometric GST assay at […] nm, nonlinear least-squares fit
Common to all, as to type: biochemical

Assay [1] deals with T1, bmGSTu2 (Bombyx mori, UniProt A9XI30, I54A).
T1 construct: full length, 233 residues, 26,667 Da calculated; cDNA from fat body; pET-22b (EcoRI/XhoI, reverse primer without stop codon), E. coli Rosetta (DE3) pLysS
T1 sequence (A9XI30 1-233 I54A): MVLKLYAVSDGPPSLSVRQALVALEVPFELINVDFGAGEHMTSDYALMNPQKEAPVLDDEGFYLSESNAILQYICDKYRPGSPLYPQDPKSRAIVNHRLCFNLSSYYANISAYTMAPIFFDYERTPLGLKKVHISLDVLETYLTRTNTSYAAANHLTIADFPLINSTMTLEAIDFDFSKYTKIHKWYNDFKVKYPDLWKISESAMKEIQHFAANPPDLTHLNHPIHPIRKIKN
To be noted: read-out: I54A; 5 mM GSH; value (SD), n = 3.

Assay [2] addresses T2, bmGSTu2 (Bombyx mori, UniProt A9XI30, E66A).
T2 construct: full length, 233 residues, 26,667 Da calculated; cDNA from fat body; pET-22b (EcoRI/XhoI, reverse primer without stop codon), E. coli Rosetta (DE3) pLysS
T2 sequence (A9XI30 1-233 E66A): T1 sequence (A9XI30 1-233 I54A) with A54I, E66A
The note with it: read-out: E66A; 5 mM GSH; value (SD), n = 3.

The target of assay [3] is T3, bmGSTu2 (Bombyx mori, UniProt A9XI30, S67A).
T3 construct: full length, 233 residues, 26,667 Da calculated; cDNA from fat body; pET-22b (EcoRI/XhoI, reverse primer without stop codon), E. coli Rosetta (DE3) pLysS
T3 sequence (A9XI30 1-233 S67A): T1 sequence (A9XI30 1-233 I54A) with A54I, S67A
To be noted: read-out: S67A; 5 mM GSH; value (SD), n = 3.

The target in assay [4] is T4, bmGSTu2 (Bombyx mori, UniProt A9XI30, N68A).
T4 construct: full length, 233 residues, 26,667 Da calculated; cDNA from fat body; pET-22b (EcoRI/XhoI, reverse primer without stop codon), E. coli Rosetta (DE3) pLysS
T4 sequence (A9XI30 1-233 N68A): T1 sequence (A9XI30 1-233 I54A) with A54I, N68A
To be noted: read-out: N68A; 5 mM GSH; value (SD), n = 3.

Assay [5] addresses T5, bmGSTu2 (Bombyx mori, UniProt A9XI30).
T5 construct: full length, 233 residues, 26,667 Da calculated; cDNA from fat body; pET-22b (EcoRI/XhoI, reverse primer without stop codon), E. coli Rosetta (DE3) pLysS
T5 sequence (A9XI30 1-233): T1 sequence (A9XI30 1-233 I54A) with A54I
The note with it: read-out: Wild-type; 5 mM GSH; value (SD), n = 3.

Substitutions are numbered along the chain they refer to.

Turning to `O=[N+]([O-])c1ccc(Cl)c([N+](=O)[O-])c1` [CDNB], the Km on bmGSTu2 [1] amounted to 2500 µM; on bmGSTu2 [2], 910 µM; on bmGSTu2 [3], 1600 µM; on bmGSTu2 [4] it was 530 µM; on bmGSTu2 [5], 270 µM.
